{
  "source": "patent US20030203963A1",
  "about": "“Antimicrobial agent” (priority 2001, published 2003)",
  "key": {"[1]": {"system": "Br. thermosphacta CRA78884", "test": "Test in cooked sausage meat slurry", "assay_type": "cell-based, Brochothrix thermosphacta", "details": "500 ppm; cooked sausage meat slurry at 8° C., pH 6.2, TSM010605", "source_text": "500 g of bologna sausage meat mixture was mixed with 500 g Brain Heart Infusion broth (BHIB) to make a homogeneous slurry. The bologna sausage meat mix comprised (g per kg): lean beef 320; lean pork 202; lard 250; water 40; glucose 5; starch 155; spice mix 3.75; sodium glutamate 0.5; sodium erythorbate 0.545; sodium di-phosphate 3; NaCl 20; sodium nitrite 0.15. 200 g samples of the meat slurry were autoclaved. While the meat was still warm it was re-mixed thoroughly. When the meat had cooled it was inoculated with 2 ml of 10^5 cfu/ml spore or cell suspension, and re-mixed again. […] The meat slurry was again shaken thoroughly to ensure even mixing, an initial viable count was taken and the samples incubated at 8° C. Samples were taken at twice-weekly intervals. The pH of the sausage meat slurry was 6.2."}, "B. cereus 204": {"system": "B. cereus 204", "test": "Bioscreen growth inhibition test", "assay_type": "cell-based, Bacillus cereus", "details": "BS010411, 24 h at 30° C.", "protocol": "(§1) For broth cultures and Bioscreen testing most bacteria were grown in Brain Heart Infusion (BHI, Oxoid, pH 7.4). Lactobacillus sake A10 was grown in de Man, Rogosa, Sharpe medium ([…], Oxoid). Yeasts were grown in Sabouraud Liquid medium (SLM, Oxoid). Most bacteria were cultured at 30° C. Lactic acid bacteria were grown on solid medium in enriched CO2 atmosphere. Clostridium species were grown in Reinforced Clostridial Medium (RCM) at 37° C. anaerobically. Brochothrix thermosphacta fungi and yeasts were grown at 25° C. Fungi were cultured on Malt Extract Agar (MEA, Oxoid).\n(§2) An automated Microbiology Reader Bioscreen C was used to measure growth curves of the strains in the presence and absence of APP. The Bioscreen C measures the development of turbidity (i.e. growth) kinetically by vertical photometry in 200 wells of a honeycomb microtitre plate, simultaneously. The system consists of a Bioscreen C analyser, which is an incubator and measurement unit, integrated with a PC, software (BioLink v 5.30), printer and a ‘Honeycomb 2’ cuvette multiwell plate. Growth curve data can be analysed within the BioLink software or exported to programs such as Excel.\n(§3) Broth culture media were dispensed in 270 μl volumes into the wells as directed. Serial dilutions of a filter-sterilised APP stock solution were then dispensed into the same wells, as appropriate. The wells were inoculated with 30 μl of an appropriately diluted overnight broth culture or spore suspension, to give a final inoculum level of […]. The tests were incubated in the Bioscreen C for either 24 h at 30° C., or 72 h at 25° C. (depending on the micro-organism under investigation) with readings taken every 20 minutes after the trays were shaken. After the incubation period was complete the data were exported to Excel for analysis."}, "B. cereus 3.046": {"system": "B. cereus 3.046", "test": "Bioscreen growth inhibition test", "assay_type": "cell-based, Bacillus cereus", "details": "BS010510, 24 h at 30° C., APP20010213", "protocol": "as §1, §2, §3"}, "B. cereus Campden": {"system": "B. cereus Campden", "test": "Bioscreen growth inhibition test", "assay_type": "cell-based, Bacillus cereus", "details": "BS010411, 24 h at 30° C.", "protocol": "as §1, §2, §3"}, "L. monocytogenes 272": {"system": "L. monocytogenes 272", "test": "Test in cooked sausage meat slurry", "assay_type": "cell-based, Listeria monocytogenes", "source_text": "500 g of bologna sausage meat mixture was mixed with 500 g Brain Heart Infusion broth (BHIB) to make a homogeneous slurry. The bologna sausage meat mix comprised (g per kg): lean beef 320; lean pork 202; lard 250; water 40; glucose 5; starch 155; spice mix 3.75; sodium glutamate 0.5; sodium erythorbate 0.545; sodium di-phosphate 3; NaCl 20; sodium nitrite 0.15. 200 g samples of the meat slurry were autoclaved. While the meat was still warm it was re-mixed thoroughly. When the meat had cooled it was inoculated with 2 ml of 10^5 cfu/ml spore or cell suspension, and re-mixed again. Each inoculated meat sample was divided into 3×50 g samples, and 1 ml of either SDW, 2.5% or 5% APP solution (batch number APP 20010215) was added to prepare meat samples containing 0, 500 and 1000 ppm APP. The meat slurry was again shaken thoroughly to ensure even mixing, an initial viable count was taken and the samples incubated at 8° C. Samples were taken at twice-weekly intervals. The pH of the sausage meat slurry was 6.2."}, "Salmonella S19": {"system": "Salmonella S19", "test": "Chicken soup trial at 8° C.", "assay_type": "cell-based, Salmonella sp.", "details": "500-1000 ppm; chicken soup at 8° C., TCSM010521, APP215", "source_text": "A local supermarket brand of cream of chicken soup was used as a model food system. 600 g packs were purchased from the local supermarket. This was a ‘fresh home-made type’ of soup that was stored in the chill cabinet, with a short shelf life. It was chosen because it is a rich, nutritious food system containing a range of food components including meat, dairy and vegetable.\nIngredients were labelled as: chicken stock (water, duck fat, chicken, salt, flavourings, yeast extracts, pork gelatine, glucose syrup, vegetable concentrate, milk protein, sugar, malto-dextrin, vegetable oil, citric acid, lactose, chicken fat), ilk, chicken (9%), cream (8%), onion, potato, vegetable oil, modified maize starch, wheat flour, lemon juice, salt, white pepper. pH 5.912. Protein: 3.3%; carbohydrate: 4.7%; fat: 7.2%; fibre: 0.2%; sodium: 0.1%\nFor the test the soup was mixed 2:1 in water (to facilitate sampling and mixing) and sterilised by autoclaving at 121° C. for 15 minutes. For each experiment the pH of the soup was recorded; this was between pH 5.79-5.88.\nFor TCS010521/8 (incubated at 8° C.), samples were prepared in 27.8 g quantities. 1.5 g of an APP stock solution was added, and the tests inoculated with 0.3 ml of a suitably diluted cell or spore suspension to give a final inoculum of ca. 10^3 cfu/g. APP was tested at 0, 500 and 1000 ppm, and batch number APP20010213 (at 169 mg/ml) was used. […]"}, "B. subtilis Campden": {"system": "B. subtilis Campden", "test": "Bioscreen growth inhibition test", "assay_type": "cell-based, Bacillus subtilis", "details": "BS010510, 24 h at 30° C., APP20010213", "protocol": "as §1, §2\nBroth culture media were dispensed in 270 μl volumes into the wells as directed. […] (depending on the micro-organism under investigation) with readings taken every 20 minutes after the trays were shaken. […]"}},
  "data": [
    {"smiles": "O=C1CC(CO)OC=C1O", "note": "(centres unmarked) [APP, Ascopyrone P]", "values": [
      {"measurement": "Effect on growth", "setting": "[1]", "value": "No significant effect with 500 and 100 ppm"},
      {"measurement": "APP level causing significant inhibition", "setting": "B. cereus 204; APP20010213", "value": 4000, "unit": "ppm"},
      {"measurement": "APP level causing total inhibition", "setting": "B. cereus 204; APP20010213", "value": ">4000", "unit": "ppm"},
      {"measurement": "APP level causing significant inhibition", "setting": "B. cereus 204; APP20010215", "value": 2000, "unit": "ppm"},
      {"measurement": "APP level causing total inhibition", "setting": "B. cereus 204; APP20010215", "value": 4000, "unit": "ppm"},
      {"measurement": "APP level causing significant inhibition", "setting": "B. cereus 3.046", "value": 2000, "unit": "ppm"},
      {"measurement": "APP level causing total inhibition", "setting": "B. cereus 3.046", "value": 3000, "unit": "ppm"},
      {"measurement": "APP level causing significant inhibition", "setting": "B. cereus Campden; APP20010213", "value": 2000, "unit": "ppm"},
      {"measurement": "APP level causing total inhibition", "setting": "B. cereus Campden; APP20010213", "value": 4000, "unit": "ppm"},
      {"measurement": "APP level causing significant inhibition", "setting": "B. cereus Campden; APP20010215", "value": 2000, "unit": "ppm"},
      {"measurement": "APP level causing total inhibition", "setting": "B. cereus Campden; APP20010215", "value": ">4000", "unit": "ppm"},
      {"measurement": "10^6 reached at", "setting": "L. monocytogenes 272; 1000 ppm, cooked sausage meat slurry at 8° C., TSM010605, controls 7 d", "value": 7, "unit": "d"},
      {"measurement": "Effect on growth", "setting": "L. monocytogenes 272; 1000 ppm, cooked sausage meat slurry at 8° C., pH 6.2, TSM010605", "value": "No total inhibition"},
      {"measurement": "Partial inhibition (effect on growth of target organism by APP)", "setting": "L. monocytogenes 272; Cooked sausage meat slurry at 8° C. pH 6.2, (1000)", "value": "L. monocytog."},
      {"measurement": "Total inhibition for", "setting": "Salmonella S19", "value": "Total inhibition by 500-1000 ppm for 22 d"},
      {"measurement": "APP level causing significant inhibition", "setting": "B. subtilis Campden", "value": 2000, "unit": "ppm"},
      {"measurement": "APP level causing total inhibition", "setting": "B. subtilis Campden", "value": 3000, "unit": "ppm"}
    ]}
  ]
}
